This note sets out measurements from publication PMC11247499, “2,8-Disubstituted-1,5-naphthyridines as Dual Inhibitors of Plasmodium falciparum Phosphatidylinositol-4-kinase and Hemozoin Formation with In Vivo Efficacy” (Journal of Medicinal Chemistry, 2024).

One data set has as its target PvPI4K (Plasmodium vivax, UniProt A5KB26). The experiment in a line: biochemical.
The subject of data set [1] is P. falciparum NF54 strain. Description: Antiplasmodial activity, parasite lactate dehydrogenase assay, NF54. In kind it is cell-based, Plasmodium falciparum. The settings on record: parasite lactate dehydrogenase assay over 72 h, read-out: Pf IC50 ± SD NF54.
Data set [2] has as its system multidrug-resistant strain, K1. The experiment in a line: Antiplasmodial activity, parasite lactate dehydrogenase assay, K1. In kind it is cell-based, Plasmodium falciparum. The settings on record: Plasmodium falciparum, K1, 72 h, parasite lactate dehydrogenase assay over 72 h; read-out: Pf IC50 ± SD K1.
In data set [3] the test system is Chinese Hamster Ovary (CHO) cell line. The experiment in a line: cells. Particulars: Cricetulus griseus, CHO; MTT assay over 48h; read-out: CHO IC50. In kind it is cell-based. (In general: Tetrazolium assays rely on reduction of a dye to a coloured formazan, in cell work by metabolically active cells.)
Another data set relates to Dd2. The experiment in a line: microbe, parasite or virus in culture. In kind it is cell-based. The settings on record: Plasmodium falciparum, DD2, 72 h, read-out: Dd2 IC50 ± SD.
The next data set deals with Dd2_PI4K_CNV. Description: microbe, parasite or virus in culture. In kind it is cell-based. The settings on record: Plasmodium falciparum, 72 h, read-out: Dd2_PI4K_CNV IC50.
The target of a further data set is T1, hERG channels (Homo sapiens, UniProt Q12809).
T1 construct: expressed in transfected cells; host or cells: CHO cells
T1 sequence (Q12809 whole entry): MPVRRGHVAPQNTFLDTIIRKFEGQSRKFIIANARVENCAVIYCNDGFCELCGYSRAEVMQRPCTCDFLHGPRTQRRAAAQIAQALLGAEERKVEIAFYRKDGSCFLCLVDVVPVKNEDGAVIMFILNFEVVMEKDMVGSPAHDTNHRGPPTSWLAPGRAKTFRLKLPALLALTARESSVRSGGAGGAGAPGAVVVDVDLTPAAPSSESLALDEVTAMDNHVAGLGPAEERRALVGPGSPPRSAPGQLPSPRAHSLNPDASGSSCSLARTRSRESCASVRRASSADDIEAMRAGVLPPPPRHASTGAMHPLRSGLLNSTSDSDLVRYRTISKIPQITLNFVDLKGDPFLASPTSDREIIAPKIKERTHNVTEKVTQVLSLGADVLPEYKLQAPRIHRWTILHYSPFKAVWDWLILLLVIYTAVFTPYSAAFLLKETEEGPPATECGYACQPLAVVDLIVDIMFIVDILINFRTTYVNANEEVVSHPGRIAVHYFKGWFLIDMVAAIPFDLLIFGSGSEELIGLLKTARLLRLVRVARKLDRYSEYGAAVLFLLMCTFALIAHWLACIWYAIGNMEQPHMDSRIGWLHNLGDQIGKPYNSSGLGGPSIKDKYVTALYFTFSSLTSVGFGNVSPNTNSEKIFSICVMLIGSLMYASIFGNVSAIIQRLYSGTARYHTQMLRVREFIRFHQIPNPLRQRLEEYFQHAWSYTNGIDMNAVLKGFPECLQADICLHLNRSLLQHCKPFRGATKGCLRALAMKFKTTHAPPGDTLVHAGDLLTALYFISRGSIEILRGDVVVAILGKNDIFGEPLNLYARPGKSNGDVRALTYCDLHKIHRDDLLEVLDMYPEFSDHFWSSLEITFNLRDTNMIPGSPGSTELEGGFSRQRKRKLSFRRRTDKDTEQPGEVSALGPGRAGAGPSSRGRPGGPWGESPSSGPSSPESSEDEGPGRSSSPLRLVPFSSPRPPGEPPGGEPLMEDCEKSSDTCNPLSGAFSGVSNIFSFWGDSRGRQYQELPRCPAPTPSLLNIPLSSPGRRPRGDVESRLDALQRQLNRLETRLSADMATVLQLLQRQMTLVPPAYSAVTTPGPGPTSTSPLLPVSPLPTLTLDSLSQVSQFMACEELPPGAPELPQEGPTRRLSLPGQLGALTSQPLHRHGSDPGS
Description: hERG inhibition, QPatch automated patch clamp assay. The format is cell-based. The settings on record: CHO cells stably expressing the hERG channels.

The nature of a further data set: LogD shake-flask. In kind it is physicochemical. The settings on record: n-octanol/phosphate buffer (1:1), phosphate buffer (pH 7.4) / n-octanol.
A further data set is described as follows: pKa of piperidine N. In kind it is physicochemical.
The next data set has as its system β-hematin (βH) formation. Description: NP-40 mediated cell-free β-hematin assay. The settings on record: read-out: β-hematin IC50; cell-free NP-40 detergent-mediated assay; n = 2.
Data set [4] in a line: Solubility, miniaturized shake flask method.
Data set [5] has as its system P. falciparum PI4K conditional knockdown line. Description: microbe, parasite or virus in culture. Particulars: for IC50: Plasmodium falciparum. In kind it is cell-based, Plasmodium falciparum.
For the next data set, the target named is cytochrome P450 2C9 (Homo sapiens, UniProt P11712). The experiment in a line: Cytochrome P450 inhibition, 2C9. In kind it is in vitro ADME.
The target in the next data set is cytochrome P450 3A4 (Homo sapiens, UniProt P08684). The experiment in a line: Cytochrome P450 inhibition, 3A4. In kind it is in vitro ADME.
Sequence of cytochrome P450 3A4 (P08684 whole entry): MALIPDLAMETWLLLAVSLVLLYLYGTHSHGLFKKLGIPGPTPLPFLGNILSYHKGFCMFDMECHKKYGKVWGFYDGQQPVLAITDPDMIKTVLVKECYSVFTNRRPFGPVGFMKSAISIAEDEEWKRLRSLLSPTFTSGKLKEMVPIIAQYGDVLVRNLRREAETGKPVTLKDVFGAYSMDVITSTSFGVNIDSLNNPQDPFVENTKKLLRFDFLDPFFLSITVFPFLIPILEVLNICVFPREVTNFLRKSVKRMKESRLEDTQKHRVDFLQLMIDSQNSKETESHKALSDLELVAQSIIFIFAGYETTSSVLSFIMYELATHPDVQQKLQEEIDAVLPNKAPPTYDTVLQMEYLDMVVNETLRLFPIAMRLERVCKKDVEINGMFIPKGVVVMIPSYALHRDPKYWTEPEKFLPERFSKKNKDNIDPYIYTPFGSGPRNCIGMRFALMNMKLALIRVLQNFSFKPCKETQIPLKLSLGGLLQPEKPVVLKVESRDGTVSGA
A further data set concerns the target cytochrome P450 2C19 (Homo sapiens, UniProt P33261). The experiment in a line: Cytochrome P450 inhibition, 2C19. In kind it is in vitro ADME.
The target in the next data set is cytochrome P450 2D6 (Homo sapiens, UniProt P10635). Description: Cytochrome P450 inhibition, 2D6. In kind it is in vitro ADME. From the text: Table 10 In Vitro and In Vivo Pharmacokinetic Parameters ^a | column: 14
Sequence of cytochrome P450 2D6 (P10635 whole entry): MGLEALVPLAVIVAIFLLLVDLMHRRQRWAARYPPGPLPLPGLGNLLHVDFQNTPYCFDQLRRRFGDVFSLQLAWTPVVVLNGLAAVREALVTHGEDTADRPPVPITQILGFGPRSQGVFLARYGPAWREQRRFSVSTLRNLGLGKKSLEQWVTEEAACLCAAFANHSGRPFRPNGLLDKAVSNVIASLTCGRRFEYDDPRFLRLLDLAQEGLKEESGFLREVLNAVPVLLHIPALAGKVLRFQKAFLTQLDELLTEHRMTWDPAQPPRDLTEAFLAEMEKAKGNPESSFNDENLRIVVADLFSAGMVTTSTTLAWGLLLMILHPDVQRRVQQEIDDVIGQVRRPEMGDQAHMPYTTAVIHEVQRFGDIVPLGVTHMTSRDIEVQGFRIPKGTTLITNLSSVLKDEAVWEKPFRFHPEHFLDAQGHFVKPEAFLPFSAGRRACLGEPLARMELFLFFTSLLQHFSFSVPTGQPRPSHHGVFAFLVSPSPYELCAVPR
The nature of data set [6]: Plasma protein binding, mouse. In kind it is in vitro ADME. Particulars: read-out: PPB fu, mouse.
Data set [7] can be described thus: In vitro microsomal stability, human. The format is in vitro ADME. The settings on record: pooled human liver microsomes, pH 7.4, read-out: microsomal CLint, app human. (Liver microsomes are a subcellular fraction often used to study metabolism.)
The nature of data set [8]: In vitro microsomal stability, rat. In kind it is in vitro ADME. Particulars: rat liver microsomes, pH 7.4, read-out: microsomal CLint, app rat.
Data set [9] is described as follows: In vitro microsomal stability, mouse. The format is in vitro ADME. The settings on record: mouse liver microsomes, pH 7.4, read-out: microsomal CLint, app mouse.
A short description of data set [10]: Mouse pharmacokinetic studies. The settings on record: male, BalbC.
The subject of a further data set is P. falciparum. Description: In vitro resistance selection under sustained drug pressure. In kind it is cell-based, Plasmodium falciparum. Particulars: sustained drug pressure at 3 × IC90 for 60 days in vitro (data not shown).
For a further data set, the target named is HuPI3Kα (Homo sapiens, UniProt P42336). Description: Human kinase inhibition, HuPI3Kα. Particulars: read-out: HuPI3Kα, IC50.
The target in a further data set is HuPI4Kβ (Homo sapiens, UniProt Q9UBF8). Description: Human kinase inhibition, HuPI4Kβ. The settings on record: read-out: HuPI4Kβ, IC50.
A further data set deals with HuMINK1 (Homo sapiens, UniProt Q8N4C8). Description: Human kinase inhibition, HuMINK1. Particulars: read-out: HuMINK1, IC50.
Sequence of HuMINK1 (Q8N4C8 whole entry): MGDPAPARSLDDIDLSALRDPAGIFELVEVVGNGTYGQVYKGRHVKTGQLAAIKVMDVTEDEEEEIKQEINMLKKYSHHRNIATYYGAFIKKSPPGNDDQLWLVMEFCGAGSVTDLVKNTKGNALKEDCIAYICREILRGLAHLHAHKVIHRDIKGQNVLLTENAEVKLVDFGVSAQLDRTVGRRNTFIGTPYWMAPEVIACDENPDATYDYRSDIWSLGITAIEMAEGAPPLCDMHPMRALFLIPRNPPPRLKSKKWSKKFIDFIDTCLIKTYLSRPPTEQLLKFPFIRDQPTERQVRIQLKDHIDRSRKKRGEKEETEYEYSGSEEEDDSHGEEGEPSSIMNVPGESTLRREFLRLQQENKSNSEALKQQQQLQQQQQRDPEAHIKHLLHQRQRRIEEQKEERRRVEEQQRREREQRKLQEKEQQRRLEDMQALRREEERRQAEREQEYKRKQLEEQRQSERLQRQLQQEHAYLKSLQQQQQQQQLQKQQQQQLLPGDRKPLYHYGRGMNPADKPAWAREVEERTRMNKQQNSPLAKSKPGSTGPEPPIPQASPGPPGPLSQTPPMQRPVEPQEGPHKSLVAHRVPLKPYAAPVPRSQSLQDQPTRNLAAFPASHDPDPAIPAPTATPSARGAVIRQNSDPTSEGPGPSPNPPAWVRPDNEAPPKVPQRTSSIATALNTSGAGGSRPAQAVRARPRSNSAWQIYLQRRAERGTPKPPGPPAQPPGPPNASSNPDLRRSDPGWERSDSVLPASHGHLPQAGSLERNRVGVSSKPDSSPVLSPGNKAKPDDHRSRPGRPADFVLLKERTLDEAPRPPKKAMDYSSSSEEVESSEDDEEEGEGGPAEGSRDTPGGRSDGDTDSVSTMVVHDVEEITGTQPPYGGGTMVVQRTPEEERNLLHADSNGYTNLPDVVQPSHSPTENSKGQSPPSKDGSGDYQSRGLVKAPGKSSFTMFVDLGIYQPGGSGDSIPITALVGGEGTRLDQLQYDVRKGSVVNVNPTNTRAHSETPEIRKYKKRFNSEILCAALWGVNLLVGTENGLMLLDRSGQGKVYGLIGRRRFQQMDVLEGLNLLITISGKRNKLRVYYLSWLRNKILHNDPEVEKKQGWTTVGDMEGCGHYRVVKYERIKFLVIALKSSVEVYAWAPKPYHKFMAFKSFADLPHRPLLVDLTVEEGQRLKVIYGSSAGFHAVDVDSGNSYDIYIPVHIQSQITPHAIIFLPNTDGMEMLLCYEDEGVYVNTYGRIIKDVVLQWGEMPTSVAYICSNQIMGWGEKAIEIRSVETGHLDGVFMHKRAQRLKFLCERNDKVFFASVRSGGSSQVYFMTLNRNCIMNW
Another data set concerns the target HuMAP4K4 (Homo sapiens, UniProt O95819). Description: Human kinase inhibition, HuMAP4K4. The settings on record: read-out: HuMAP4K4, IC50.
[11] abbreviates: purified recombinant PvPI4K, 10 μM ATP, ADP-Glo, mean of N ≥ 2, read-out: PvPI4K IC50 ± SD.
Setting [12] is: Plasmodium falciparum, NF54, 72 h.

Values after ≈ are worked out from the molar mass of the structure shown. Values joined by “and” are separate entries in the source; they are usually repeats but may differ in a detail not shown here. Equal entries are not always repeated. Where two headings read alike, the source gives them in different places.

Sequence of PvPI4K (A5KB26 entry or part of it): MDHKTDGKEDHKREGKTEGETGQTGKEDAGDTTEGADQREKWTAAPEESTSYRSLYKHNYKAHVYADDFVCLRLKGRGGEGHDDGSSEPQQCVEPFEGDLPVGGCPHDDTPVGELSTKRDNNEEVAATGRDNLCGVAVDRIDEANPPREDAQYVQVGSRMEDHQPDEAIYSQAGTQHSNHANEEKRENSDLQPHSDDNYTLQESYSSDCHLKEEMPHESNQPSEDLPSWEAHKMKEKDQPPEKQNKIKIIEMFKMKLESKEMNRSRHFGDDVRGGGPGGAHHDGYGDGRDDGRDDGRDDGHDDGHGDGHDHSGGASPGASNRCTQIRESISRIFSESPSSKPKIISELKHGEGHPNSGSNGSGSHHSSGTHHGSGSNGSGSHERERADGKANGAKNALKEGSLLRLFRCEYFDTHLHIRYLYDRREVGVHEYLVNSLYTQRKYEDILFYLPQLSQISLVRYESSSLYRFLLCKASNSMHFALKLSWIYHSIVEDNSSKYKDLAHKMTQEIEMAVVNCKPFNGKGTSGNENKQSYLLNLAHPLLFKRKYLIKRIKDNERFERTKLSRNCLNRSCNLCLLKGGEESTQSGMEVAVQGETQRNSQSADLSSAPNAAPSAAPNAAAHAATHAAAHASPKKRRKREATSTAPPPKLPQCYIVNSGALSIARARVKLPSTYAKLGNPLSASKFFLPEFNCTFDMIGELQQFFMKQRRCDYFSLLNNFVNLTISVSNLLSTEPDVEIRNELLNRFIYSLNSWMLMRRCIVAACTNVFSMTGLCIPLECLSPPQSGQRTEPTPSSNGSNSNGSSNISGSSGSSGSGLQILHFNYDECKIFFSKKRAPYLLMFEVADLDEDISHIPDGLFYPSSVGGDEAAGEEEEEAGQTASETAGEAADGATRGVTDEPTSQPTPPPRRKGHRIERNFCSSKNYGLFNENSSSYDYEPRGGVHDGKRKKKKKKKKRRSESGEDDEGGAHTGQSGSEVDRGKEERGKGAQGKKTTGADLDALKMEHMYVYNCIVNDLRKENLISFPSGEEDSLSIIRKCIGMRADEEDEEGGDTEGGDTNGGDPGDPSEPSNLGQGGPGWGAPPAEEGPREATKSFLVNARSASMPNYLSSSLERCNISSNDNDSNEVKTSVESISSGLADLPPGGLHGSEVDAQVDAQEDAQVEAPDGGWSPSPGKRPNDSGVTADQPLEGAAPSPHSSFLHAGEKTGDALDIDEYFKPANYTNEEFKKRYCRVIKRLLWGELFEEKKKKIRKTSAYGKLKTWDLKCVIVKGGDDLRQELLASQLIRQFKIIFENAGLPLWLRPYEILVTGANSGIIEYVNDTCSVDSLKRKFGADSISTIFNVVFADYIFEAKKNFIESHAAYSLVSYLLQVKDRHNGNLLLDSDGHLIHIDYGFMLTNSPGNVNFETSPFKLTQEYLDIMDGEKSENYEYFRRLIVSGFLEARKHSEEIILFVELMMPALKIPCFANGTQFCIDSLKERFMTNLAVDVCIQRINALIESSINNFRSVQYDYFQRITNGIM

A word on the IC50: it is the point on the concentration scale where inhibition reaches its midpoint. One may read the logD as the decadic logarithm of the distribution of all forms, ionised or not, between an organic phase and buffer at a given pH. Low values mean a more hydrophilic compound, high ones a more lipophilic compound. One may read the pKa as the pH at which an ionisable group is half protonated. Low values mean a group that gives up its proton readily, high ones a group that holds its proton tightly. Broadly, the solubility is the dissolved amount per volume that the medium holds. Low values mean little dissolved substance, high ones much dissolved substance. In the case of `O[C@H]1CNCC[C@H]1Nc1ccnc2ccc(-c3ccc(C(F)(F)F)nc3)nc12` (relative stereo) [Compound 27, rac-cis-4-[[6-[6-(Trifluoromethyl)pyridin-3-yl]-1,5-naphthyridin-4-yl]amino]piperidin-3-ol], the IC50 came to 370 ± 175 nM on PvPI4K (setting [11]); 140 nM in data set [1] (setting [12]); 130 ± 24 nM in data set [1]; 334 ± 147 nM in [2]; 33000 nM in [3]; 437 ± 71 nM with Dd2. For the same molecule, the IC50 in the data set with Dd2_PI4K_CNV came out at 381 ± 17 nM; at hERG channels, 24500 nM; in the data set with β-hematin (βH) formation it was 140000 ± 7000 nM. This molecule also yielded a logD at 3 h in “LogD shake-flask” of 1.02. For the same molecule, the pKa in the data set “pKa of piperidine N” worked out at 8.99. The molecule further gave a solubility at 20 h in [4] (aqueous solution) of 200 µM (≈ 77.9 µg/mL).

For `FC(F)CN1CCC(Nc2ccnc3ccc(-c4ccc(C(F)(F)F)nc4)nc23)CC1` [Compound 23, N-[1-(2,2-Difluoroethyl)piperidin-4-yl]-6-[6-(trifluoromethyl)pyridin-3-yl]-1,5-naphthyridin-4-amine], the IC50 against PvPI4K is 53 ± 28 nM; in data set [1] (setting [12]), 880 ± 34 nM; with β-hematin (βH) formation it was 30000 nM and < 60000 nM. Further, the solubility in the data set “physchem” was determined as 20 µM (≈ 8.75 µg/mL).

As usually defined, the Vd is a proportionality between amount in the body and measured concentration, not a real space. A low value points to little distribution into tissue. The term half-life denotes the time needed for the level to fall by half in the phase considered. The low end stands for fast loss, the high end for slow loss. As a reminder, the bioavailability is the share of a dose that reaches the circulation, judged against a reference dose that is usually intravenous. Consider `N[C@H]1CCN(c2ccnc3ccc(-c4ccc(C(F)(F)F)nc4)nc23)C1` [Compound 14, (3S)-1-[6-[6-(Trifluoromethyl)pyridin-3-yl]-1,5-naphthyridin-4-yl]pyrrolidin-3-amine], for which the IC50 on PvPI4K (setting [11]) worked out at 1210 ± 220 nM; in data set [1] (setting [12]), 31 ± 3 nM; in data set [2], 87 ± 30 nM; in [3], 12000 nM; in the data set with Dd2 it was 46 ± 20 nM; with Dd2_PI4K_CNV, 41 ± 10 nM. Moreover, the IC50 is 23 nM in [5] (72 h, read-out: ABS IC50 for PfPI4K cKD, N=1, +aTc, experiment N=1, +aTc (500 nM, control conditions), 72 hours); 25 nM in [5] (72 h, read-out: ABS IC50 for PfPI4K cKD, N=1, no aTc, experiment N=1, no aTc (PI4K knockdown), 72 hours); 37 nM in [5] (72 h, read-out: ABS IC50 for PfPI4K cKD, N=2, +aTc, experiment N=2, +aTc (500 nM, control conditions), 72 hours); 38 nM in [5] (72 h, read-out: ABS IC50 for PfPI4K cKD, N=2, no aTc, experiment N=2, no aTc (PI4K knockdown), 72 hours); 21 nM in data set [5] (72 h, read-out: ABS IC50 for PfPI4K cKD, N=3, +aTc, experiment N=3, +aTc (500 nM, control conditions), 72 hours); 20 nM in data set [5] (72 h, read-out: ABS IC50 for PfPI4K cKD, N=3, no aTc, experiment N=3, no aTc (PI4K knockdown), 72 hours). Also, the IC50 in data set [5] (read-out: ABS IC50 for PfPI4K cKD, Mean + SD, +aTc, mean of N=3, +aTc (control conditions)) is 27 ± 9 nM; in data set [5] (read-out: ABS IC50 for PfPI4K cKD, Mean + SD, no aTc, mean of N=3, no aTc (PI4K knockdown)) it was 28 ± 9 nM; at cytochrome P450 2C9 it was above 20000 nM; at cytochrome P450 3A4, above 20000 nM; on cytochrome P450 2C19 it was 18000 nM; against cytochrome P450 2D6, above 20000 nM. Further, the IC50 was 5200 nM at HuPI3Kα; above 10000 nM at HuPI4Kβ; above 10000 nM at HuMINK1; above 10000 nM at HuMAP4K4; 33000 nM and < 60000 nM with β-hematin (βH) formation. The “ABS IC50 for PfPI4K cKD, N=1, fold shift” value in data set [5] (experiment N=1, +aTc vs no aTc) was found to be 0.90 fold. The “ABS IC50 for PfPI4K cKD, N=2, fold shift” value in data set [5] (experiment N=2, +aTc vs no aTc) is reported as 0.98 fold. The “ABS IC50 for PfPI4K cKD, N=3, fold shift” value in data set [5] (experiment N=3, +aTc vs no aTc) worked out at 1.04 fold. Besides, the “ABS IC50 for PfPI4K cKD, mean fold shift (fold decrease in IC50 on knockdown)” value in data set [5] (mean, +aTc vs no aTc) was 0.97 fold. The fraction unbound at 5 h, 5 µM in [6] was 0.08. The CLint scaled at 1 µM in [7] was below 13 mL/min/kg; in data set [8], below 21 mL/min/kg; in data set [9], below 46 mL/min/kg. In addition, the “in vivo mouse CLu” value in data set [10] is 135 mL/min/kg. In data set [10] (in vivo, iv, 2 mg/kg), the Vd at 24 h was 4.4 L/kg. The molecule also gave a half-life at 24 h in data set [10] (in vivo, iv, 2 mg/kg) of 6.3 h. Also, in data set [10] (in vivo, po), the bioavailability at 24 h was 27%. For the same molecule, in data set [10] (iv, 2 mg/kg), the “in vivo mouse CLb” value is 10.80 mL/min/kg. In addition, the “Attempts to raise mutants” value in the data set on P. falciparum is “not successful”. Besides, the solubility at 20 h is 200 µM (≈ 71.9 µg/mL) in [4] (PBS, pH 6.5) and 200 µM (≈ 71.9 µg/mL) in data set [4] (aqueous solution).
